For series [1], the system named is HT1080 (fibrosarcoma) cancer cells. Nature of the series: MTS cytotoxicity assay on HT1080 cells. The class given is cell-based.
The test system of series [2] is MDA-MB-231 (breast) cancer cells. The class given is cell-based. Conditions: for IC50: 24 h.
In series [3] the test system is A549 human lung cancer cells. Nature of the series: MTT cytotoxicity assay on A549 cells. The class given is cell-based. The settings on record: for Factor by which metallation with Cu^2+ increases efficacy, A549: from average IC50 values, apo vs Cu^2+-bound. A general note: Tetrazolium dyes change colour on reduction, which living cells bring about.
Series [4] has as its system normal MRC-5 (lung) fibroblast cells. Nature of the series: Cytotoxicity assay on normal MRC-5 fibroblasts. It counts as cell-based. Conditions: 95% confidence interval in parentheses; for apo-P1 given as 50% inhibition at. An excerpt:
A549 human lung cancer cells were obtained from ATCC (ATCC CCL-185) and were maintained in Dulbecco’s Modified Eagle’s Medium (DMEM-F12, Lonza, catalog no. 12-719F) supplemented with 10% heat inactivated FBS and 1% Penn-Step. The HT1080 and MRC-5 cells were purchased from ATCC (catalog no. CCL-121 and CCL-171, respectively) and grown in Eagle’s Minimum Essential Medium (ATCC, catalog no. 30-2003TM) that was supplemented with FBS (ATCC, catalog no. 30-2021TM) such that the medium contained 10% FBS. The MDA-MB-231 and HeLa cells were obtained from ATCC (ATCC, catalog no. HTB-26 and CCL-2, respectively) and maintained in DMEM supplemented with 10% FBS. All cell cultures were grown at 37.5 °C in a humidified 5% CO2 atmosphere.
The cytotoxicity assays followed well established procedure, with the details given in the Supplementary Information. The assays were performed in triplicates using 96 well plates Cell viability was calculated using the equation: % viability = [(AT-AB)/(AC-AB)] × 100, where AT is the absorbance of the treatment well, AB is the average background absorbance measured from three wells containing only media, and AC is the absorbance of the […] control well, which received only 100 µL of media and 40 µL of MTT solution (i.e. no peptide). Averages and error bars were calculated as the mean + / − standard deviation based on triplicates. The IC50 values were obtained by fitting the percentage viability (% viability) vs Log (M) concentration of peptides to generate inhibitor dose response curve using the GraphPad Prism software. The curves were fitted using a least-squares minimization method. Individual data points on the graphs are provided as the mean (± standard deviation) from the triplicate % viability values. The GraphPad Prism algorithm converted the logIC50 into IC50 and used the standard error of the mean on the logIC50 to yield the 95% confidence interval for the logIC50 and IC50.
P1-Cu2+ and P3-Cu2+ were assayed on normal MRC-5 (lung) fibroblast cells (ATTC catalog no CCL-171), giving
given in parentheses. […]

The subject of series [5] is HeLa (cervical) cancer cells. Nature of the series: MTS cytotoxicity assay on HeLa cells. It counts as cell-based. Conditions: 24 h treatment, triplicates, 95% CI in parentheses, for P3 first data point at 0.16 µmol/L not used, holo-forms 1:1 CuCl2.
A short description of series [6]: SPR/EIS on tethered bilayer membrane (membrane permeation). Conditions: POPC tBLM, Tris 20 mmol/L, 50 mmol/L NaCl, pH 7.4; steps of 0.1 μmol/L, 10 min each. On the procedure: Planar, tethered bilayer membranes (tBLM) supported on gold-coated surfaces (Fig. 2C) were made using 1-palmitoyl-2-oleoyl-sn-glycero-3-phosphocholine (POPC) to mimic cancer cell membranes[80],[81]. Combined, surface plasmon resonance (SPR)/electrical impedance spectroscopy (EIS) measurements (Fig. 3) were conducted by injecting the peptide in small increments while simultaneously observing (1) the kinetics associated with the peptides binding to the bilayer (SPR) and (2) the formation of peptide-lined defects that increase membrane permeation and conductance (EIS). […]
SPR/EIS measurements were carried out on tethered bilayer membrane (tBLM) using a custom-built instrument previously described (Fig. 2B)[123],[124]. […] Several POPC tBLMs were assembled on the gold surfaces using thiolated polyethyleneglycol linker molecules (1,2-di-O-myristyl-3-[ω-mercaptohexa(ethylene oxide) glycerol] (WC14) and β-mercaptoethanol (βME) at a ratio of 70:30 βME:WC14. The tBLMs were equilibrated in Tris buffer (20 mmol/L, 50 mmol/L NaCl, pH 7.4) and allowed to rest until both SPR and EIS signals were stable, before peptide injection. Two types of measurements were done. In the first type (Fig. 3), the peptide concentration was increased gradually, in steps of 0.1 μmol/L, and the SPR/EIS was monitored for 10 min after each addition. […]

Series [7] can be described thus: Lipid oxidation, absorbance at 234 nm. Conditions: SUVs 0.20 mg/mL, P/L = 1:10 (26 µmol/L), 4 mmol/L phosphate pH 7.8, 24 h exposure to air, triplicates. An excerpt: It has long been known that certain divalent metal ions, especially iron and copper, promote lipid peroxidation (oxidative deterioration of polyunsaturated fatty acids), a mechanism that has been strongly associated with cellular injury and death. Divalent transition-metal ions participate in Fenton-like chemical reactions produces ROS (e.g., hydroxyl radicals, superoxide) that can oxidize double bonds within the membrane. Here, to learn about the possible piscidin/Cu^2+-mediated oxidation of double bonds in lipid bilayers, we used absorbance and mass spectrometry to measure the formation of the oxidation products in small unilamellar vesicles (SUV) constituted of di-linoleoyl-sn-glycero-3-phosphocholine (DLPC) and POPG mixed in a 3:1 molar ratio and prepared at a concentration of 0.50 mg total lipid/mL. We first tested the ability of free Cu^2+ to oxidize the double bonds within the liposomes. Increasing amounts of Cu^2+ for a fixed amount of lipids (expressed as Cu/L, the molar ratio of Cu^2+ to total lipid) were mixed with the SUVs and the absorbance was measured at λ = 234 nm (Fig. 7A) (corresponding to λmax for the conjugated dienes that appear in lipid oxidation products)[92],[93]. Because molecular oxygen (O2) found in the atmosphere readily dissolves in the bilayer, no exogenous oxidant is needed to initiate the oxidation of the double bonds. […]

Series [8] concerns normal MRC-5 (lung) fibroblast cells. Details: dose or concentration left out as unconfirmed. The settings on record: at about; ref Lin et al.1; cited from earlier work. An excerpt:
(§1) Tested at up to 10 µ mol/L ...

For series [9], the system named is HGF-1 (gingival) fibroblast cells. Conditions: tested at up; no significant inhibitory effects; ref Cheng et al.2; cited from earlier work.
Excerpt: as §1

The test system of series [10] is OMF (mucosal) fibroblast cells. The settings on record: tested at up to 10 mol/L; no significant inhibitory effects; ref Cheng et al.2; cited from earlier work.
Excerpt: as §1

Where two headings read alike, the source gives them in different places. No end group written: not given here.

The IC50 is the point on the concentration scale where inhibition reaches its midpoint. Consider FIHHIFRGIVHAGRSIGRFLTG-NH2 [P3-Cu^2+], for which the IC50 in series [1] (24 h) came out at 5.52 µM; in series [2] it was 5.25 µM; in [3] (24 h), 2.99 µM; in [4], 8.62 µM.
As for `[Cl][Cu][Cl]` [Free Cu^2+, CuCl2, reference compound], in [1] (CuCl2 tested at up to 30 µmol/L, HT1080 cells, same conditions as the peptides (Fig. S1B)), the “Cytotoxicity of free Cu^2+” value is “not cytotoxic”.
Consider FFHHIFRGIVHVGKTIHRLVTG-NH2 [P1-Cu^2+], for which the concentration for half-maximal inhibition (IC50) in [1] (MTS, 24 h treatment, triplicates, 95% confidence interval in parentheses, holo-forms metallated 1:1 with CuCl2, read-out: IC50, HT1080) was 5.31 µM; in [3] (MTT, 24 h treatment, triplicates, 95% CI in parentheses, holo-forms 1:1 CuCl2, read-out: IC50, A549), 2.15 µM; in series [5], 2.17 µM; in [4], 5.97 µM.
Take “FIHHIFRGIVHAGRSIGRFLTG-NH2 [P3, piscidin 3]”: the concentration for half-maximal inhibition (IC50) in [1] (24 h) stood at 26 µM; in [2], 17.5 µM; in [3] (24 h), 21.6 µM. Also, the “Factor by which metallation with Cu^2+ increases efficacy, HT1080” value in series [1] (from average IC50 values, apo vs Cu^2+-bound) is “≈ 5 fold”. Moreover, the “Factor by which metallation with Cu^2+ increases efficacy, A549” value in series [3] is on record as “≈ 7 fold”. The “Peptide concentration inducing drop in bilayer resistance (EIS)” value in series [6] stood at 0.5 µmol/L. In series [7], the “Lipid oxidation (absorbance peak at 234 nm)” value is on record as “little lipid oxidation”.
On to “FFHHIFRGIVHVGKTIHRLVTG-NH2 [P1, piscidin 1]”, for which, in [2] (from average IC50 values, apo vs Cu^2+-bound, given as 'up to'), the “Factor by which metallation with Cu^2+ increases efficacy, MDA-MB-231” value is reported as “≈ 2 fold”. Also, in series [3], the “Factor by which metallation with Cu^2+ increases efficacy, A549” value is listed as “≈ 2 fold”. Also, the IC50 in series [4] was 8.56 µM. Also, the “Peptide concentration inducing drop in bilayer resistance (EIS)” value in series [6] came to 0.2 µmol/L. Besides, the “Lipid oxidation (absorbance peak at 234 nm)” value in series [7] is “little lipid oxidation”. Besides, in [8], the “Inhibition of MRC-5 cells” value is reported as ~ 45%. Besides, the “Survival, HGF-1” value in series [9] is given as more than 90%. Further, the “Survival, OMF” value in [10] is more than 90%.

These data come from article PMC8208971, “Copper-binding anticancer peptides from the piscidin family: an expanded mechanism that encompasses physical and chemical bilayer disruption” (Scientific Reports, 2021).
